According to patent US8680133B2, “Alkyl indole-3-carbinol-derived antitumor agents” (The Ohio State University Research Foundation, priority 2009, dated 2014):

Experiments:
[1] = test system: PC-3 xenograft tumor; test: PC-3 xenograft tumor growth in nude mice, oral gavage; format: in vivo; details: 25 and 50 mg/kg per day by oral gavage, 49-day treatment; in words
Description: FIG. 2 provides three graphs (A-C) showing the in vivo effects of OSU-A9M (C) versus OSU-A9 (A) and OSU-A9 F (B), each at 25 and 50 mg/kg per day by oral gavage, on suppressing PC-3 xenograft tumor growth in nude mice (n=6).
The efficacy studies were therefore repeated with OSU-A9M and OSU-A9F, following 42 days and 49 days treatment, respectively, versus OSU-A9 with 49-day treatment.
In all three treatments, the body weights of drug-treated mice were not affected. No signs of overt toxicity were observed.

[2] = test system: PC-3 prostate cancer cells; test: MTT assay of PC-3 cell viability; format: cell-based; details: MTT assay, 24, 48 and 72 h; comparison in words
Description: Each data point represents means±S.D. (n=6). The activity of OSU-A9M versus its parent compound A9 ([1-(3′-nitro-4′-chlorobenzenesulfonyl)-1H-indol-3-yl]-methanol) and its fluorinated counterpart OSU-A9F ([1-(4-Chloro-3-nitro-benzenesulfonyl)-5-fluoro-1H-indol-3-yl])-methanol in suppressing the cell viability of PC-3 prostate cancer cells was compared using the MTT [3-(4,5-dimethylthiazol-2-yl)-2,5-diphenyl-2H-tetrazolium bromide] assay. Cancer cells and PrECs were grown in 5% FBS-supplemented RPMI 1640 medium or 5% FBS-supplemented prostate epithelial growth medium, respectively, in 96-well, flat-bottomed plates for 24 h, and then exposed to various concentrations of test agents in the same medium for the indicated time intervals. Controls received DMSO vehicle at a concentration equal to that in drug-treated cells. At the end of the treatment, the medium was removed, replaced by 200 μL of 0.5 mg/mL of MTT in the same medium, and cells were incubated in the CO2 incubator at 37° C. for 2 h. Supernatants were removed from the wells, and the reduced MTT dye was solubilized in 200 μL/well DMSO. Absorbance at 570 nm was determined on a plate reader.

O=[N+]([O-])c1cc(S(=O)(=O)n2cc(CO)c3ccccc32)ccc1Cl [OSU-A9, [1-(3′-nitro-4′-chlorobenzenesulfonyl)-1H-indol-3-yl]-methanol, reference compound]
Tumor growth suppression in the PC-3 model [1]: significant tumor growth suppression

O=[N+]([O-])c1cc(S(=O)(=O)n2cc(CO)c3cc(F)ccc32)ccc1Cl [OSU-A9F, reference compound]
In vitro potency against the viability of PC-3 cells [2]: greater than or similar to that of OSU-A9
